The target in experiment [1] is T1, monoamine oxidase (type A, tryptamine substrate) (Rattus norvegicus, UniProt P21396).
T1 sequence (P21396 1-526): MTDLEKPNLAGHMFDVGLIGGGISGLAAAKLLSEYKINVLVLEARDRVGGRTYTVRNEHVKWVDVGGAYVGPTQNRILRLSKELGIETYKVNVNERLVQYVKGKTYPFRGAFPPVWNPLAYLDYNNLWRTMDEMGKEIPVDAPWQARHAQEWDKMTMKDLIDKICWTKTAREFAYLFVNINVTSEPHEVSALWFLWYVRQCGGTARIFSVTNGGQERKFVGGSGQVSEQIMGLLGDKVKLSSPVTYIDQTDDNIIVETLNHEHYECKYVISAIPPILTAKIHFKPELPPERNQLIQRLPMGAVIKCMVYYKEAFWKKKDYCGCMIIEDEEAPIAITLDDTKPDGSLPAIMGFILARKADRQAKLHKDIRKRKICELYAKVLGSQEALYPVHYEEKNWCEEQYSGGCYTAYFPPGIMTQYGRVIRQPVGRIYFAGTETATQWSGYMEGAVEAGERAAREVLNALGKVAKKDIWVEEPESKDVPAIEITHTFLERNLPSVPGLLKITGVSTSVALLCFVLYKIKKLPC
Nature of the experiment: In-vitro monoamine oxidase inhibition, [14C]tryptamine as substrate. The experiment is classed as biochemical. The note with it: rat brain monoamine oxidase extract, 37° C., 20 minutes, pH 7.4, read-out: I.C.50 -value using as substrate [14C]tryptamine.

Experiment [2] addresses T2, monoamine oxidase (type B, β-phenylethylamine substrate) (Rattus norvegicus, UniProt P19643).
T2 sequence (P19643 1-520): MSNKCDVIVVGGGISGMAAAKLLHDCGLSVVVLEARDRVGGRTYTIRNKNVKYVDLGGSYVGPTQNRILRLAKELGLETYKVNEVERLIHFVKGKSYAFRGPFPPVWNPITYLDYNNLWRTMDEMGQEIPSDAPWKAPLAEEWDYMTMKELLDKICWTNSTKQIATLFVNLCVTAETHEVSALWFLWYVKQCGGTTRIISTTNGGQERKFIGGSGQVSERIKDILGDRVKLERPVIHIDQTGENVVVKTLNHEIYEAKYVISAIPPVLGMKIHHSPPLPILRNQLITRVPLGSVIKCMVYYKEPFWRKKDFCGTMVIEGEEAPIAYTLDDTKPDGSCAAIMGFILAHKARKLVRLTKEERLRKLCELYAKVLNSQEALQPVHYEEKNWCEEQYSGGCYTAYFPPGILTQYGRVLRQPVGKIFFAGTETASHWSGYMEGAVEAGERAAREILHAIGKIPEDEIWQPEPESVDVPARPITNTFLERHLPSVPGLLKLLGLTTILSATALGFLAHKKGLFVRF
Nature of the experiment: In-vitro monoamine oxidase inhibition, [14C]phenylethylamine hydrochloride as substrate. The note with it: rat brain monoamine oxidase extract, 37° C., 20 minutes, pH 7.4, read-out: I.C.50 -value using as substrate [14C]phenylethylamine.HCl. The format is biochemical.

This passage reports IC50 results from patent US4471117A, “3,4-Dihydro-2H-pyrimido(2,1-b)benzothiazoles” (Janssen Pharmaceutica N.V., priority 1980, dated 1984).

Counter-ions that a name gives are not always drawn. Like-named read-outs stand apart in the source and are kept apart here.

`Cc1ccc(CNc2ccc3c(c2)SC2=NCCCN23)cc1` [8-NHCH2 (4-CH3C6 H4)]: the IC50 in experiment [1] (Table 1) was 1 µM; in experiment [2] (Table 1), 0.02 µM.
For `COc1ccc(CNc2ccc3c(c2)N2CCCN=C2S3)cc1` [7-NHCH2 (4-OCH3C6 H4)], the IC50 in experiment [1] (Table 1) came out at 0.25 µM; in experiment [2] (Table 1) it was 0.065 µM.
For `NC(=O)Nc1ccc2c(c1)N1CCCN=C1S2` [Example 7-NHCONH2, N-(3,4-dihydro-2H-pyrimido[2,1-b]benzothiazol-7-yl)urea], the results for the IC50 in experiment [1] (Table 1) and in experiment [2] (Table 1) were 0.85 µM and 12 µM, respectively.
For `Cc1ccc(C(C)(C)C)c2c1N1CCCN=C1S2` [6-CH3,9-C(CH3)3] the same measures were 0.065 µM and greater than 100 µM.
For the compound `c1ccc2cc3c(cc2c1)SC1=NCCCN13` [7,8-(CHCHCHCH)], the IC50 in experiment [1] (Table 1) is 0.03 µM; in experiment [2] (Table 1), 9 µM.
Turning to `CC[N+]1=C2Sc3ccc(NC(C)C)cc3N2CCC1`, the values for the IC50 in experiment [1] (Table 2) and in experiment [2] (Table 2) were 0.011 µM and 45 µM, respectively.
With `CCC(CC)Nc1ccc2c(c1)N1CCCN=C1S2` [7-NHCH(C2 H5)2, N-(1-ethylpropyl)-3,4-dihydro-2H-pyrimido[2,1-b]benzothiazol-7-amine], the IC50 in experiment [1] (Table 1) was 0.0034 µM; in experiment [2] (Table 1) it was 0.305 µM.
Regarding `O=C(c1ccccc1)c1ccc2c(c1)N1CCCN=C1S2` [7-COC6 H5], the results for the IC50 in experiment [1] (Table 1) and in experiment [2] (Table 1) were 0.12 µM and 2.5 µM, respectively.
Turning to `CCNc1cccc2c1SC1=NCCCN12` [9-NHC2 H5, N-ethyl-3,4-dihydro-2H-pyrimido[2,1-b]benzothiazol-9-amine], the IC50 in experiment [1] (Table 1) stood at 0.003 µM; in experiment [2] (Table 1), 100 µM.
Turning to `CCCc1ccc2c(c1)N1CCCN=C1S2` [7-C3 H7], the values for the IC50 in experiment [1] (Table 1) and in experiment [2] (Table 1) were 0.02 µM and 1.2 µM, respectively.
For `CCOC(=O)C(=CNc1ccc2c(c1)SC1=NCCCN12)C(=O)OCC` [8-NHCHC(COOEt)2] the same measures were 20 µM and 0.16 µM.
For `C=CC[N+]1=C2Sc3ccc(CCCCCCCCC)cc3N2CCC1`, the IC50 in experiment [1] (Table 2) came out at 0.25 µM; in experiment [2] (Table 2) it was 0.38 µM.
On to `c1cc2c(cc1NC1CCCC1)N1CCCN=C1S2` [7-NHc.C5 H9], for which the IC50 stood at 0.005 µM in experiment [1] (Table 1) and 0.12 µM in experiment [2] (Table 1).
`Nc1cccc2c1SC1=NCCCN12` [Example 9-NH2, 3,4-dihydro-2H-pyrimido[2,1-b]benzothiazol-9-amine dihydrochloride]: the IC50 in experiment [1] (Table 1) was 0.35 µM; in experiment [2] (Table 1), 90 µM.
As for `c1cc2c(cc1C1CCCCC1)SC1=NCCCN12` [8-c.C6 H11], the IC50 in experiment [1] (Table 1) is 0.0085 µM; in experiment [2] (Table 1), 0.05 µM.
Take `COc1cc(CNc2ccc3c(c2)SC2=NCCCN23)cc(OC)c1OC` [8-NHCH2 [3,4,5-(OCH3)3C6 H2]]: the IC50 in experiment [1] (Table 1) was 20 µM; in experiment [2] (Table 1), 0.034 µM.
Take `CC(C)Nc1ccc2c(c1)SC1=NCCCN12` [8-NHi.C3 H7]: the IC50 amounted to 0.09 µM in experiment [1] (Table 1) and 20 µM in experiment [2] (Table 1).
As to `CCCCc1ccc2c(c1)SC1=NCCCN12` [8-C4 H9], the IC50 is 0.032 µM in experiment [1] (Table 1) and 0.26 µM in experiment [2] (Table 1).
